In patent publication US20210161894A1, “Compositions and Methods for Modulating Liver Endothelial Cell Fenestrations” (priority 2017, published 2021):
“Also recorded” adds a separate entry of the source.

How the values were obtained:
fenestrations = details: young mice; cited from earlier work
LSEC fenestrations [1] = assay: SEM of LSEC fenestrations after drug treatments (Example 2, FIGS. 1-6); format: cell-based, mice; details: for change in fenestration porosity / change in fenestration frequency: Cytochalasin D 0.5 μg/ml, Amlodipine 20 ng/ml; for sieve plates and fenestration density on SEM images: young and old mice
Excerpt: Young and old C57B16 mice (n=3 young mice, age 3-4 and n=3 old mice, 20-24 months) were maintained under full SPF conditions and with ad libitum feeding. The study had the approval of the Sydney South West Area Health Service Animal Welfare Committee. Mice at 20-24 months are senescent. Animals were sacrificed withCO2 and livers immediately perfusion-fixed via a 23G needle inserted into the portal vein. Liver tissue was fixed with1% glutaraldehyde/4% para-formaldehyde in PBS (0.1M sucrose).
Drug treatments and dosages (shown superimposed on their corresponding image in FIGS. 1, and 2) were performed by incubating liver cells at 37° C., 5% CO2 for 30 mins using RPMI with or without dissolved drug. All images were taken by two blinded researchers using a SEM at 10,000×, scale bars of 1 μm are shown.
Each data point represents the average±SD of 8 images (as shown in FIGS. 1 and 2), 616-3312 fenestration raw data points were collected per treatment.

[2] = tested on: actin cytoskeleton of LSECs; assay: dSTORM imaging of the actin cytoskeleton; format: cell-based; details: young mice
Procedure: dSTORM imaging was performed using an in-house microscope. LSECs were prepared for dSTORM by washing twice with PBS and fixation with 4% paraformaldehyde for 30 mins. Then LSECs were washed twice with PBS, permeabilised with Triton-X for 90 secs, blocked with 5% bovine serum albumin for 1 hour, and stained with Alexa Flour phalloidin 488 (1:40) for 20 min prior to imaging. Cells were washed using PBS with 0.1% Tween and placed in OxEA buffer (30) for dSTORM visualisation and image capture. The dSTORM used 488 and 647 nm excitation from diode-pumped lasers (Coherent Inc, CA, USA). Excitation was delivered via a 1.49NA 60× oil-immersion TIRF objective (Olympus Australia, AUS). Fluorescence was captured on two separate sCMOS cameras (Imaging Development Systems GmbH, Germany). Data was collected for up to 40,000 images at around 75 fps. 5-8 whole cell images were collected by a blinded observer for each treatment dosage and processed using rapidSTORM open source software (Wolter et al. Nat Methods 9: 1040, 2012.). Each image was examined for all sieve plates and actin structures. Densitometry measurements were performed using 5-8 dSTORM images with data analysis performed using Image J software (NIH, MD, USA).

[3] = tested on: lipid rafts and fenestrations of LSECs; assay: 3D-SIM study of lipid rafts and fenestrations; format: cell-based
Excerpt: Sieve plates containing fenestrations are intercalated between thickened areas of membrane (lipid rafts).

[4] = tested on: isolated LSECs (liver sinusoidal endothelial cells); assay: SEM of fenestrations in isolated LSECs from young and old mice after 30 min drug treatment (second Example 7); format: cell-based; details: for Diameter / Frequency / Porosity: 30 min; for effect on porosity and fenestration frequency (summary in words): young and old LSECs
Procedure: 3-4 and 18-24 month old male C57/B16 mice were obtained from the Animal Resource Centre in Perth, Western Australia. Animals were housed at the ANZAC Research Institute animal house on a 12 hour light/dark cycle and provided with ad libitum access to food and water. Mice were not fasted prior to euthanasia by a single intraperitoneal injection with 100 mg/kg ketamine and 10 mg/kg xylazine in saline. The study was approved by the Animal Welfare Committee of the Sydney Local Health District and was performed in accordance with the Australian Code of Practice for the care and use of animals for scientific research (AWC 2016/009). All information provided accords with the ARRIVE guidelines.
As described previously (Cogger et al. J e52698, 2015 https://dx.doi.org/10.3791/52698), mouse LSEC isolation was performed by perfusion of the liver with collagenase. Non-parenchymal cells were removed by a two-step Percoll gradient and Kupffer cells were removed by selective adherence to plastic. LSECs (seeded at 0.5×10^6 cells/cm2) were cultured (37° C., 5% CO2) in serum free RPMI-1640 for 3.5 hours before use.
Cells were treated with various agents for 30 minutes to determine effects on fenestrations. All agents were dissolved in serum-free RPMI media. All experiments were performed in triplicate for both young and old mice. Actin was disrupted with 0.5 μg/ml cytochalasin D and lipid rafts were disrupted with 3.6 and 1.8 μg/ml 7-keocholesterol; dosages were selected. […] The serotonergic/phospholipase C pathway was promoted with DOI (0.1 μg/ml) and endothelin receptors were inhibited by bosentan (550, 55 and 5.5 ng/ml) Death receptor 4 was promoted with TRAIL (100, 10. 1, 0.1 and 0.01 ng/ml) and NAD+ was promoted with NMN (5000, 50, 10, 1 and 0.1 μg/ml).
SEM was performed as previous described (Corbin et al J Biol Chem 274: 13729-13732, 1999.). LSECs were fixed in 2.5% glutaraldehyde in 0.1M sodium cacodylate buffer, osmicated, dehydrated in graded ethanol and hexamethyl disilazane, mounted on stubs, sputter coated with platinum and examined using a JEOL 6380 Scanning Electron Microscope (JEOL Ltd, Japan). Images at 10,000× magnification were collected by a blinded observer and used to measure fenestration diameter and LSEC porosity using Image J (NIH, MD, USA). […] Fenestrations less than 30 nm and gaps more than 300 nm were excluded from analysis. Porosity was defined as the percentage of the cell membrane covered with fenestrations. Frequency was defined at the number of fenestrations per […].
Individual specifications of analyses are described in figures legends. All data are presented as mean±SD. Experimental design and analysis were performed in accordance with the APS guidelines described in Curran-Everett and Benos DJ. Adv Physiol Educ 31: 295-298, 2007.

LSEC fenestrations [5] = assay: Acute defenestration by a single intraperitoneal injection of P407; format: in vivo
Excerpt: Acute loss of fenestrations, in the absence of other ageing changes, causes dyslipidaemia and insulin resistance Ageing is a complex process leading to impairment of many cellular pathways. To test the hypothesis that age-related loss of fenestrations contributes to dyslipidaemia and insulin resistance, the inventors aimed to evaluate the impact of acute defenestration in the absence of other ageing changes. […] P407 administration caused a 10-fold increase in circulating lipoproteins, especially triglycerides and chylomicron remnants, while preventing the transfer of small chylomicrons across the LSEC.

[6] = old mice, DOI 0.1 μg/ml, 7KC 9 μM
[7] = old mice, DOI 0.1 μg/ml, 7KC 9 μM, Bosentan 0.1 μM, Sildenafil 300 ng/ml
[8] = young mice, DOI 0.1 μg/ml, 7KC 9 μM

## C=C1[C@@H](C)[C@H]2[C@H](Cc3ccccc3)NC(=O)[C@]23[C@H](OC(C)=O)/C=C/[C@@](C)(O)C(=O)[C@@H](C)C/C=C/[C@H]3[C@@H]1O [Cytochalasin D, cytochalasin D]
fenestrations
  fenestration porosity and diameter (previously reported): increase fenestration porosity in young mice without any significant effects on fenestration diameter
LSEC fenestrations [1]; old mice
  sieve plate grouping on SEM images: greater fenestration sieve plate grouping
LSEC fenestrations [1]; [6]
  change in fenestration porosity: increased porosity
LSEC fenestrations [1]; [7]
  change in fenestration frequency: increased
LSEC fenestrations [1]
  sieve plates and fenestration density on SEM images: promoted increased fenestration density and maintained sieve plate fenestration clustering
LSEC fenestrations [1]; young mice, Bosentan 0.1 μM, Sildenafil 300 ng/ml
  change in fenestration frequency: increased
LSEC fenestrations [1]; [8]
  change in fenestration porosity: increased porosity
[2]
  actin changes with drug treatments (dSTORM): Disordered actin structure; also recorded: Dense actin plasma membrane; also recorded: Stress fibres; also recorded: Single isolated fenestrations
[2]; listed as cytochalasin D
  actin changes with drug treatments (dSTORM): extensive actin staining of the plasma membrane; also recorded: loss of smooth fibres encircling the cytoplasm
[3]
  effect on fenestrations and lipid rafts: increased fenestrations and decreased rafts
[4]; old mice
  fenestrations in LSECs from old mice: increased fenestrations
[4]; old mice, 0.5 μg/ml
  Diameter: 117.04 ± 9.26 nm
  Frequency: 3.39 ± 1.07 no/area
  Porosity: 3.82 ± 1.01%
[4]
  effect on porosity and fenestration frequency (summary in words): significantly increased frequency but not porosity in young and old LSECs
[4]; young mice, 0.5 μg/ml
  Change in Porosity, Young: ↑ (ns)
  Diameter: 126.78 ± 10.68 nm
  Frequency: 4.57 ± 0.51 no/area
  Porosity: 6.05 ± 0.62 %
[4]; young mice, not significant (P=0.08)
  increase in porosity: 33%

## CC(C)CCC[C@@H](C)[C@H]1CC[C@H]2[C@@H]3C(=O)C=C4C[C@@H](O)CC[C@]4(C)[C@H]3CC[C@]12C [7-ketocholesterol]
fenestrations
  fenestration porosity and diameter (previously reported): increase fenestration porosity in young mice without any significant effects on fenestration diameter
LSEC fenestrations [1]
  diameter of fenestrations observed on SEM images: Increased diameter of fenestrations
  sieve plates and fenestration density on SEM images: promoted increased fenestrations but limited clearly definable sieve plates
LSEC fenestrations [1]; old mice, 7KC 4.5 μM, Bosentan 0.1 μM, Sildenafil 300 ng/ml, TRAIL 1 μg/ml
  change in fenestration diameter: Increased fenestration diameter
LSEC fenestrations [1]; [6]
  change in fenestration porosity: increased porosity
LSEC fenestrations [1]; [7]
  change in fenestration frequency: increased
LSEC fenestrations [1]; [8]
  change in fenestration porosity: increased porosity
[3]
  effect on fenestrations and lipid rafts: increased fenestrations and decreased rafts
[4]
  gap formation: Gap formation was apparent
  increase in fenestration diameter: 15 nm
  effect on porosity and fenestration frequency (summary in words): significant increases in porosity and fenestration frequency in both young and old LSECs
[4]; old mice
  fenestrations in LSECs from old mice: increased fenestrations
[4]; old mice, 1.8 μg/ml
  Diameter: 154.41 ± 13.07 nm
  Frequency: 2.65 ± 0.94 no/area
  Porosity: 5.19 ± 0.95 %
[4]; old mice, 3.6 μg/ml
  Diameter: 139.46 ± 17.45 nm
  Frequency: 3.15 ± 0.08 no/area
  Porosity: 5.34 ± 1.17 %
[4]; young and old mice, P<0.05
  fenestration diameter: increased fenestration diameter in both young and old mice
[4]; young mice, 1.8 μg/ml
  Diameter: 142.35 ± 8.02 nm
  Frequency: 3.59 ± 0.78 no/area
  Porosity: 6.10 ± 1.82%
[4]; young mice, 3.6 μg/ml
  Diameter: 148.59 ± 7.70 nm
  Frequency: 4.36 ± 0.93 no/area
  Porosity: 8.03 ± 1.37 %
[4]; young mice, NMN 5000 μg/ml, 7-ketocholesterol 3.6 μg/ml
  shift in frequency distribution of fenestration diameter: decreased 30-125 nm diameter fenestrations and an increase in 150-3000 sized fenestrations

## poloxamer 407 [P407]
LSEC fenestrations [5]; especially triglycerides and chylomicron remnants
  increase in circulating lipoproteins: 10 fold
LSEC fenestrations [5]; in vivo
  passage of insulin across the LSEC: prevented the passage of insulin across the LSEC
LSEC fenestrations [5]; within 24 hours of a single intraperitoneal injection
  loss of fenestrations: 30-80%
